Experimental data taken from ChEMBL document CHEMBL1153169, “Structure-activity relationships of the ultrapotent vanilloid resiniferatoxin (RTX): The side chain benzylic methylene” (Bioorg Med Chem Lett, 2010).

Molecular target: T1, Transient receptor potential cation channel subfamily V member 1 (Homo sapiens, UniProt Q8NER1)
Experiment: Selectivity ratio of EC50 for drug to capsaicin for human TRPV1 expressed in HEK293 cells assessed as increase in intracellular calcium level
Format: cell-based

T1 sequence (Q8NER1 whole entry): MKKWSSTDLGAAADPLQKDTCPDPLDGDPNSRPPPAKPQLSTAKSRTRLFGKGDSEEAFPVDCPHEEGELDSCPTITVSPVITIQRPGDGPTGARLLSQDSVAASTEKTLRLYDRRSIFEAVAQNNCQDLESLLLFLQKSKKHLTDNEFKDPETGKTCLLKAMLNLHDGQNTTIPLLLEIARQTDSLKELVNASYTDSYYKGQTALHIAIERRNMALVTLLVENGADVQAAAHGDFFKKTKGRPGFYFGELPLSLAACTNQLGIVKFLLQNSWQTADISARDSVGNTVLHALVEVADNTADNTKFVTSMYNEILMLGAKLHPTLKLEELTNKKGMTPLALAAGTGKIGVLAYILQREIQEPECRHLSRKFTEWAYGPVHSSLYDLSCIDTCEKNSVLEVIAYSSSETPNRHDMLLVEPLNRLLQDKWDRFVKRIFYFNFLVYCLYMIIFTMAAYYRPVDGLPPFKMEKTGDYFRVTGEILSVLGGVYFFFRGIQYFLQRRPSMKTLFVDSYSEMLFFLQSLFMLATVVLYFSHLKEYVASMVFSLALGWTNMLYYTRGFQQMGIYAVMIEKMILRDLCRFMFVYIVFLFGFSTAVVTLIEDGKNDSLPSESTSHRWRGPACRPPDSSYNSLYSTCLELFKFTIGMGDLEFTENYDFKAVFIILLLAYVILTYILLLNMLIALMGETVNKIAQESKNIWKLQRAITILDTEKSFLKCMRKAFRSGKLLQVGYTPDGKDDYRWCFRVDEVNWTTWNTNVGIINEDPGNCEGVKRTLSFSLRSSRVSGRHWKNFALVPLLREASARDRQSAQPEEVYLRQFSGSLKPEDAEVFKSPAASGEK

For `C=C(C)[C@]12C[C@@H](C)[C@@]34O[C@](Cc5ccccc5)(O[C@@H]1[C@@H]3C=C(COC(=O)Oc1ccc(O)c(OC)c1)C[C@]1(O)C(=O)C(C)=C[C@@H]41)O2`, which Ratio EC50 is on record?
The Ratio EC50 was 3.

Molecular target: T1, Transient receptor potential cation channel subfamily V member 1
Experiment: Antagonist activity at human TRPV1 expressed in HEK293 cells assessed as inhibition of intracellular calcium level
Format: functional, cell-based

With `C=C(C)[C@]12C[C@@H](C)[C@@]34O[C@](Cc5ccccc5)(O[C@@H]1[C@@H]3C=C(COC(=O)Cc1cc(I)c(O)c(OC)c1)C[C@]1(O)C(=O)C(C)=C[C@@H]41)O2` [IODORESINIFERATOXIN] as the compound, how does the IC50 read?
Its IC50 is 4000 nM.

Molecular target: T1, Transient receptor potential cation channel subfamily V member 1
Experiment: Agonist activity at human TRPV1 expressed in HEK293 cells assessed as increase in intracellular calcium level
Format: functional, cell-based

With `C=C(C)[C@]12C[C@@H](C)[C@@]34O[C@](Cc5ccccc5)(O[C@@H]1[C@@H]3C=C(COC(=O)C(OC)c1ccc(O)c(OC)c1)C[C@]1(O)C(=O)C(C)=C[C@@H]41)O2` (some centres undefined) as the compound, how does the EC50 read?
Its EC50 is 17.4 nM.

`C=C(C)[C@]12C[C@@H](C)[C@@]34O[C@](Cc5ccccc5)(O[C@@H]1[C@@H]3C=C(COC(=O)C(OC(C)=O)c1ccc(O)c(OC)c1)C[C@]1(O)C(=O)C(C)=C[C@@H]41)O2` (some centres undefined) was tested. Which EC50 did it give?
The EC50 was 0.65 nM.

With `C=C(C)[C@]12C[C@@H](C)[C@@]34O[C@](Cc5ccccc5)(O[C@@H]1[C@@H]3C=C(COC(=O)Oc1cc(I)c(O)c(OC)c1)C[C@]1(O)C(=O)C(C)=C[C@@H]41)O2` as the compound, how does the EC50 read?
Its EC50 is 0.0047 nM.

How did the EC50 turn out when `C=C(C)[C@]12C[C@@H](C)[C@@]34O[C@](Cc5ccccc5)(O[C@@H]1[C@@H]3C=C(COC(=O)C(O)c1ccc(O)c(OC)c1)C[C@]1(O)C(=O)C(C)=C[C@@H]41)O2` (some centres undefined) was run?
The EC50 was 19 nM.

How did the EC50 turn out when `C=C(C(=O)OCC1=C[C@H]2[C@H]3O[C@@]4(Cc5ccccc5)O[C@@]2([C@H](C)C[C@]3(C(=C)C)O4)[C@@H]2C=C(C)C(=O)[C@@]2(O)C1)c1ccc(O)c(OC)c1` was run?
Its EC50 is 0.15 nM.

Which EC50 does the source give for `C=C(C)[C@]12C[C@@H](C)[C@@]34O[C@](Cc5ccccc5)(O[C@@H]1[C@@H]3C=C(COC(=O)Oc1ccc(O)c(OC)c1)C[C@]1(O)C(=O)C(C)=C[C@@H]41)O2` here?
Its EC50 is 13.7 nM.

For `C=C(C)[C@]12C[C@@H](C)[C@@]34O[C@](Cc5ccccc5)(O[C@@H]1[C@@H]3C=C(COC(=O)C(C)c1ccc(O)c(OC)c1)C[C@]1(O)C(=O)C(C)=C[C@@H]41)O2` (some centres undefined), which EC50 is on record?
Its EC50 is 0.98 nM.
